Holding throughout (test): Antibacterial MIC, broth microdilution (CLSI)
Type in all cases: cell-based
On the technique in general: Dilution methods test growth across graded concentrations, often in twofold steps.

The subject of assay [1] is Staphylococcus aureus (ATCC 43300). The conditions noted are these: Staphylococcus aureus, ATCC43300; read-out: MIC80 S. aureus.
The subject of assay [2] is Escherichia coli (ATCC 25922). The conditions noted are these: Escherichia coli, ATCC25922; read-out: MIC80 E. coli.
Assay [3] has as its system Enterococcus faecalis (ATCC 51299). The conditions noted are these: Enterococcus faecalis, ATCC51299; read-out: MIC80 E. faecalis.

The results in this text go back to patent US20250313546A1, “NUCLEIC ACID BINDERS” (UNIVERSITY OF STRATHCLYDE, priority 2022, published 2025).

Values after ≈ are worked out from the molar mass of the structure shown. Some results are limits rather than exact numbers.

Broadly, the MIC80 is an inhibitory concentration at the 80% level, which refers to growth in some studies and to a panel of isolates in others. On to `Cn1cc(NC(=O)c2cc(NC(=O)c3ccc(/C=C/c4cnc5ccccc5c4)cc3)cn2C)cc1C(=O)NCCCCC(=N)N` [II1, (E)-N-(5-amino-5-iminopentyl)-1-methyl-4-(1-methyl-4-(4-(2-(quinolin-3-yl)vinyl)benzamido)-1H-pyrrole-2-carboxamido)-1H-pyrrole-2-carboxamide], for which the MIC80 in assay [1] was 25 to 100 µM (≈ 15.4 to 61.7 µg/mL); in assay [2], above 100 µM; in assay [3], above 100 µM.
Turning to `CN(C)c1ccc(/C=C/c2ccc(C(=O)Nc3cc(C(=O)Nc4cc(C(=O)NCCCCC(=N)N)n(C)c4)n(C)c3)cn2)cc1` [II2, (E)-N-(5-((5-((5-amino-5-iminopentyl)carbamoyl)-1-methyl-1H-pyrrol-3-yl)carbamoyl)-1-methyl-1H-pyrrol-3-yl)-6-(4-(dimethylamino)styryl)nicotinamide], the MIC80 in assay [1] was 5 to 25 µM (≈ 3.05 to 15.2 µg/mL); in assay [2] it was above 100 µM; in assay [3], 5 to 25 µM (≈ 3.05 to 15.2 µg/mL).
As for `Cn1cc(NC(=O)c2cc(NC(=O)c3ccc(/C=C/c4cnc5ccccc5c4)cc3)cn2C)cc1C(=O)NCCCCCC(=N)N` [II3, (E)-N-(6-amino-6-iminohexyl)-1-methyl-4-(1-methyl-4-(4-(2-(quinolin-3-yl)vinyl)benzamido)-1H-pyrrole-2-carboxamido)-1H-pyrrole-2-carboxamide], the MIC80 in assay [1] is 5 to 25 µM (≈ 3.15 to 15.8 µg/mL); in assay [2] it was above 100 µM; in assay [3], above 100 µM.
Regarding `CN(C)c1ccc(/C=C/c2ccc(C(=O)Nc3cc(C(=O)Nc4cc(C(=O)NCCCCCC(=N)N)n(C)c4)n(C)c3)cn2)cc1` [II4, (E)-N-(5-((5-((6-amino-6-iminohexyl)carbamoyl)-1-methyl-1H-pyrrol-3-yl)carbamoyl)-1-methyl-1H-pyrrol-3-yl)-6-(4-(dimethylamino)styryl)nicotinamide], the MIC80 is 5 to 25 µM (≈ 3.12 to 15.6 µg/mL) in assay [1], above 100 µM in assay [2] and above 100 µM in assay [3].
`CN(C)C(=O)c1cc(NC(=O)c2cc(NC(=O)c3ccc(/C=C/c4cnc5ccccc5c4)cc3)cn2C)cn1C` [IVa16, (E)-N,N,1-trimethyl-4-(1-methyl-4-(4-(2-(quinolin-3-yl)vinyl)benzamido)-1H-pyrrole-2-carboxamido)-1H-pyrrole-2-carboxamide]: the MIC80 in assay [1] is below 5 µM; in assay [2] it was above 100 µM; in assay [3] it was below 5 µM.
Take `CCCNC(=O)c1cc(NC(=O)c2cc(NC(=O)c3ccc(/C=C/c4cnc5ccccc5c4)cc3)cn2C)cn1C` [IVa17, (E)-1-methyl-4-(1-methyl-4-(4-(2-(quinolin-3-yl)vinyl)benzamido)-1H-pyrrole-2-carboxamido)-N-propyl-1H-pyrrole-2-carboxamide]: the MIC80 in assay [1] was below 5 µM; in assay [2], above 100 µM; in assay [3], below 5 µM.
For the molecule `COCCNC(=O)c1cc(NC(=O)c2cc(NC(=O)c3ccc(/C=C/c4cnc5ccccc5c4)cc3)cn2C)cn1C` [IVa18, (E)-N-(2-methoxyethyl)-1-methyl-4-(1-methyl-4-(4-(2-(quinolin-3-yl)vinyl)benzamido)-1H-pyrrole-2-carboxamido)-1H-pyrrole-2-carboxamide], the MIC80 was below 5 µM in assay [1], above 100 µM in assay [2] and below 5 µM in assay [3].
As to `CNC(=N)CCNC(=O)c1cc(NC(=O)c2cc(NC(=O)c3ccc(/C=C/c4ccc(C(F)(F)F)cc4)cc3)cn2C)cn1C` [Ia2, (E)-N-(3-imino-3-(methylamino)propyl)-1-methyl-4-(1-methyl-4-(4-(4-(trifluoromethyl)styryl)benzamido)-1H-pyrrole-2-carboxamido)-1H-pyrrole-2-carboxamide], the MIC80 is below 5 µM in assay [1] and above 100 µM in assay [2].
The like results for `CNC(=N)CCNC(=O)c1cc(NC(=O)c2cc(NC(=O)c3ccc(/C=C/c4ccc5ccccc5c4)cc3)cn2C)cn1C` [Ia4, (E)-N-(3-imino-3-(methylamino)propyl)-1-methyl-4-(1-methyl-4-(4-(2-(naphthalen-2-yl)vinyl)benzamido)-1H-pyrrole-2-carboxamido)-1H-pyrrole-2-carboxamide] were, in that order, 5 to 25 µM (≈ 3.01 to 15 µg/mL) and above 100 µM.
For the molecule `CONC(=N)CCNC(=O)c1cc(NC(=O)c2cc(NC(=O)c3ccc(/C=C/c4cccc(OC)c4)cc3)cn2C)cn1C` [Ia29, (E)-N-(3-imino-3-(methoxyamino)propyl)-4-(4-(4-(3-methoxystyryl)benzamido)-1-methyl-1H-pyrrole-2-carboxamido)-1-methyl-1H-pyrrole-2-carboxamide], the figures for the MIC80 in assay [1], in assay [2] and in assay [3] were below 5 µM, above 100 µM and 5 to 25 µM (≈ 2.99 to 14.9 µg/mL), respectively.
`[H]/N=C(\CCNC(=O)c1cc(NC(=O)c2cc(NC(=O)c3ccc(C=Cc4ccc5nonc5c4)cc3)cn2C)cn1C)NOC` [Ia30, (E)-4-(4-(2-(benzo[c][1,2,5]oxadiazol-5-yl)vinyl)benzamido)-N-(5-((3-imino-3-(methoxyamino)propyl)carbamoyl)-1-methyl-1H-pyrrol-3-yl)-1-methyl-1H-pyrrole-2-carboxamide]: the results for the MIC80 in assay [1], in assay [2] and in assay [3] were 5 to 25 µM (≈ 3.05 to 15.2 µg/mL), above 100 µM and 5 to 25 µM (≈ 3.05 to 15.2 µg/mL), respectively.
`[H]/N=C(\CCNC(=O)c1cc(NC(=O)c2cc(NC(=O)c3ccc(C=Cc4ccc(N(C)C)cc4)nc3)cn2C)cn1C)NOC` [Ia31, (E)-6-(4-(dimethylamino)styryl)-N-(5-((5-((3-imino-3-(methoxyamino)propyl)carbamoyl)-1-methyl-1H-pyrrol-3-yl)carbamoyl)-1-methyl-1H-pyrrol-3-yl)nicotinamide]: the MIC80 was below 5 µM in assay [1], above 100 µM in assay [2] and 5 to 25 µM (≈ 3.06 to 15.3 µg/mL) in assay [3].
On to `Cn1cc(NC(=O)c2cc(NC(=O)c3ccc(/C=C/c4cnc5ccccc5c4)cc3)cn2C)cc1C(=O)NCCC(=N)NCCN1CCSCC1` [Ia47, (E)-N-(3-imino-3-((2-thiomorpholinoethyl)amino)propyl)-1-methyl-4-(1-methyl-4-(4-(2-(quinolin-3-yl)vinyl)benzamido)-1H-pyrrole-2-carboxamido)-1H-pyrrole-2-carboxamide], for which the MIC80 was 5 to 25 µM (≈ 3.59 to 17.9 µg/mL) in assay [1], above 100 µM in assay [2] and above 100 µM in assay [3].
With `Cn1cc(NC(=O)c2cc(NC(=O)c3ccc(/C=C/c4cnc5ccccc5c4)cc3)cn2C)cc1C(=O)NCCC(=N)NCCc1ccccc1` [Ia48, (E)-N-(3-imino-3-(phenethylamino)propyl)-1-methyl-4-(1-methyl-4-(4-(2-(quinolin-3-yl)vinyl)benzamido)-1H-pyrrole-2-carboxamido)-1H-pyrrole-2-carboxamide], the MIC80 in assay [1] is below 5 µM; in assay [2] it was above 100 µM; in assay [3] it was below 5 µM.
In the case of `[H]/N=C(\CCNC(=O)c1cc(NC(=O)c2cc(NC(=O)c3ccc(C=Cc4ccc(N(C)C)cc4)nc3)cn2C)cn1C)NCCc1ccccc1` [Ia49, (E)-6-(4-(dimethylamino)styryl)-N-(5-((5-((3-imino-3-(phenethylamino)propyl)carbamoyl)-1-methyl-1H-pyrrol-3-yl)carbamoyl)-1-methyl-1H-pyrrol-3-yl)nicotinamide], the results for the MIC80 in assay [1], in assay [2] and in assay [3] were below 5 µM, above 100 µM and above 100 µM, respectively.
With `CC/N=C(/CCNC(=O)c1cc(NC(=O)c2cc(NC(=O)c3ccc(/C=C/c4cnc5ccccc5c4)cc3)cn2C)cn1C)NCC` [Ia50, N—((Z)-3-(ethylamino)-3-(ethylimino)propyl)-1-methyl-4-(1-methyl-4-(4-((E)-2-(quinolin-3-yl)vinyl)benzamido)-1H-pyrrole-2-carboxamido)-1H-pyrrole-2-carboxamide], the MIC80 was 25 to 100 µM (≈ 16.1 to 64.5 µg/mL) in assay [1], above 100 µM in assay [2] and 25 to 100 µM (≈ 16.1 to 64.5 µg/mL) in assay [3].
As for `C/N=C(/CCNC(=O)c1cc(NC(=O)c2cc(NC(=O)c3ccc(/C=C/c4cccc(F)c4)cc3)cn2C)cn1C)NC` [Ia64, 4-(4-((E)-3-fluorostyryl)benzamido)-1-methyl-N-(1-methyl-5-(((Z)-3-(methylamino)-3-(methylimino)propyl)carbamoyl)-1H-pyrrol-3-yl)-1H-pyrrole-2-carboxamide], the MIC80 in assay [1] was 5 to 25 µM (≈ 2.92 to 14.6 µg/mL).
The same measure, in the same setting: in the case of `C/N=C(/CCNC(=O)c1cc(NC(=O)c2cc(NC(=O)c3ccc(/C=C/c4ccc(F)cc4)nc3)cn2C)cn1C)NC` [Ia65, 6-((E)-4-fluorostyryl)-N-(1-methyl-5-((1-methyl-5-(((Z)-3-(methylamino)-3-(methylimino)propyl)carbamoyl)-1H-pyrrol-3-yl)carbamoyl)-1H-pyrrol-3-yl)nicotinamide] it was below 5 µM.
On the same count and under the same terms, under `CC[N+](C)(C)CCCNC(=O)c1cc(NC(=O)c2cc(NC(=O)c3ccc(/C=C/c4cccc(C(F)(F)F)c4)nc3)cn2C)cn1C` [Ic20, (E)-N-ethyl-N,N-dimethyl-3-(1-methyl-4-(1-methyl-4-(6-(3-(trifluoromethyl)styryl)nicotinamido)-1H-pyrrole-2-carboxamido)-1H-pyrrole-2-carboxamido)propan-1-aminium] stands 25 to 100 µM.
Take `CC[N+](C)(C)CCCNC(=O)c1cc(NC(=O)c2cc(NC(=O)c3ccc(/C=C/c4ccc(F)c(OC)c4)nc3)cn2C)cn1C` [Ic21, (E)-N-ethyl-3-(4-(4-(6-(4-fluoro-3-methoxystyryl)nicotinamido)-1-methyl-1H-pyrrole-2-carboxamido)-1-methyl-1H-pyrrole-2-carboxamido)-N,N-dimethylpropan-1-aminium]: the MIC80 in assay [1] is 25 to 100 µM.
Same read-out and setting: in the case of `CC[N+](C)(C)CCCNC(=O)c1cc(NC(=O)c2cc(NC(=O)c3ccc(/C=C/c4ccc5nonc5c4)cc3)cn2C)cn1C` [Ic22, (E)-3-(4-(4-(4-(2-(benzo[c][1,2,5]oxadiazol-5-yl)vinyl)benzamido)-1-methyl-1H-pyrrole-2-carboxamido)-1-methyl-1H-pyrrole-2-carboxamido)-N-ethyl-N,N-dimethylpropan-1-aminium] it was 25 to 100 µM; in that of `CC[N+](C)(C)CCCNC(=O)c1cc(NC(=O)c2cc(NC(=O)c3ccc(/C=C/c4cnc5ccccc5c4)cc3)cn2C)cn1C` [Ic23, (E)-N-ethyl-N,N-dimethyl-3-(1-methyl-4-(1-methyl-4-(4-(2-(quinolin-3-yl)vinyl)benzamido)-1H-pyrrole-2-carboxamido)-1H-pyrrole-2-carboxamido)propan-1-aminium], 5 to 25 µM.
